Data reported in PMC7846798, “Population pharmacokinetic modeling and clinical application of vancomycin in Chinese patients hospitalized in intensive care units” (Scientific Reports, 2021).
Entries after “also recorded” stand apart in the source; their conditions may differ. Where two headings read alike, the source gives them in different places. Marks after values point to notes of the source that are not given here.

Experiments:
[1] = Population pharmacokinetic analysis of vancomycin (nonlinear mixed-effects modeling, Kinetica, one-compartment model)
Method: Data collected from patients’ medical records included age, total body weight, Sex, creatinine level, drug combination, and burn and continuous renal replacement therapy status (Burn-S, CRRT-S).
A total of 837 trough concentration (Ctrough) blood samples were collected 0.5 h before the next dose (after CRRT treatment for CRRT treatment patients), and 156 samples were collected at approach peak concentration (1 h after the peak concentration), both at the steady state (after the 6th dose) for most patients. All the samples (3–5 ml) were placed in 10 ml tubes containing coagulant and then centrifuged at 3000 rpm for 5 min. The supernatant serum was stored at − 80 °C for further testing.
The multilevel calibration was 0.4–100.0 μg/ml with calibration line slope consistently > 0.999. The RSD of intra-day and inter-day assays were less than 7%, and the recovery rate was 95.5–103.2%. Serum creatinine was detected by the creatine oxidase method with a biochemistry analyzer (Beckmann CX5).
As most of the trough concentrations of vancomycin was collected from sparse data at steady state, we fit the data with a one-compartment model to retrieve the pharmacokinetic parameters (CL and V).The covariate models and interindividual variability were expressed as following equation: βi=Ziβ+ηj, where βj denote as the parameter for the jth subject; Zj is amatrix depending on the covariates Zj. When no covariates are included, β is the (p*1) vector of the mean parameters; ηj is the interindividual variability that is assumed normal distribution with mean 0 and covariance matrix C (p*p).

[2] = cited from earlier work
Excerpt: We reasonably fitted the plots of concentrations versus time with one-compartment models for most serum samples (n = 837) collected during the trough period (156 samples were collected during the approach peak period).

[3] = Vancomycin serum concentrations (trough and approach peak) by HPLC; format: in vivo, human; details: n = 374 ICU patients
Method: Ctrough means trough concentration that of blood samples collected 0.5 h before the next dose; Cappro peak means approach peak concentration that of the blood samples collected 1 h after completion of drug infusion.

[4] = basic model (no covariates), Chinese ICU adult patients, population mean (RSE%)
[5] = Christine, 102 patients, unstable renal function
[6] = used as initial estimate, Chinese adult patients, ref Ji et al. [6]
[7] = values reported by other studies in non-ICU patients

CN[C@H](CC(C)C)C(=O)N[C@H]1C(=O)N[C@@H](CC(N)=O)C(=O)N[C@H]2C(=O)N[C@H]3C(=O)N[C@H](C(=O)N[C@H](C(=O)O)c4cc(O)cc(O)c4-c4cc3ccc4O)[C@H](O)c3ccc(c(Cl)c3)Oc3cc2cc(c3O[C@@H]2O[C@H](CO)[C@@H](O)[C@H](O)[C@H]2O[C@H]2C[C@](C)(N)[C@H](O)[C@H](C)O2)Oc2ccc(cc2Cl)[C@H]1O [vancomycin]
CL (RSE%) [1, 4]: 2.63 (25.72) L/h | V (RSE%) [1, 4]: 55.32 (27.31) L | Final covariate equation of V ([1]; final model, Cr μmol/L, Age y, TBW kg): V = 46.47 − 0.04*Cr − 0.07*Age + 0.16* TBW | Final covariate equation of CL ([1]; final model, DA dopamine (1 not used, 2 used), Cr μmol/L, Burn-S (1 burn > 50%, 2 < 50%), TBW kg, CRRT-S (1 CRRT, 2 not)): CL = 0.78 + 0.036*DA − 0.007*Cr − 0.43*Burn-S + 0.067*TBW + 0.41*CRRT-S; also recorded: CL =0.78 + 0.036*DA − 0.007*Cr -0.43* Burn-S + 0.067*TBW + 0.41* CRRT-S | CL (RSE%) ([1]; final population model, Chinese ICU adult patients, one-compartment, EM algorithm, Kinetica 4.4.1, 294 patients for model building, serum HPLC, population mean): 3.16 (56.01) L/h | Final model of CL [2, 5]: CL(L·h^−1) = 2.97*(1 + 0.0205*(CLCr − CLCrMedian)) | V [2, 5]: 1.24 L/kg | V ([2]; ICU patients with Cr > 88.4 μmol/l): 148.19 L | V ([2]; ICU patients with Cr value below 88.4 μmol/l): 59.86 L | Final model of CL ([2]; Llopis, 30 ICU patients): CL(L·h^−1) = 0.034*CLCr(ml·min^−1) + 0.015* TBW | Final model of Vc (central compartment volume) ([2]; Llopis, 30 ICU patients): Vc (L) = 0.414* TBW | Final model of Vp (peripheral compartment volume) ([2]; Llopis, 30 ICU patients): Vp (L) = 1.32*TBW | Final model of CL ([2]; Natalia, 191 ICU patients): CL(ml·min^−1·kg^−1) = 0.67*CLCr (ml·min^−1 ·kg^−1) + AGE^−0.24 | Final model of V ([2]; Natalia, 191 ICU patients): V (L·kg^−1) = 0.82*2.49^A, A = 0 or 1 if Cr ≤ 88.4 or Cr > 88.4 μmol/L | Final model of CL ([2]; Yasuhara, 190 adult Japanese, if CLCr < 85): CL(L·h^−1) = 0.0487*CLCr(ml·min^−1), | CL ([2]; Yasuhara, 190 adult Japanese, if CLCr > 85): 3.51 L/h | initial pharmacokinetic parameter CL [2, 6]: 2.83 L/h | initial pharmacokinetic parameter V [2, 6]: 52.14 L | CL [2, 7]: 2.89 to 5.93 L/h | V [2, 7]: 31.24 to 91.76 L | Ctrough (trough concentration) ([3]; blood samples collected 0.5 h before the next dose, steady state (after the 6th dose), regimens 0.5 g qd to 1 g q12h): 16.3 ± 12.4 | Cappro peak (approach peak concentration) ([3]; blood samples collected 1 h after completion of drug infusion, steady state): 36.0 ± 19.4
